{"source": "ChEMBL document CHEMBL6127119", "about": "(J Med Chem, 2024)", "key": {"[1]": {"test_system": "Acinetobacter baumannii", "experiment": "Antibacterial activity against Carbapenem-resistant Acinetobacter baumannii clinical isolate incubated for 16 to 24 hrs by CLSI based broth microdilution method", "assay_type": "functional", "conditions": "time 16-24 hrs"}, "[2]": {"test_system": "Staphylococcus aureus", "experiment": "Post-antibiotic effect in Staphylococcus aureus MRSA252 assessed as time of effect at 10 to 20 times", "assay_type": "functional"}, "[3]": {"experiment": "Clearance in CD-1 mouse at 10 mg/kg, iv measured for 24 hrs by UPLC analysis", "assay_type": "ADME, organism-based", "conditions": "in vivo"}, "[4]": {"experiment": "Toxicity in BALB/c mouse infected with methicillin-resistant Staphylococcus aureus MRSA252 assessed as survival rate at 20 mg/kg, iv for 7 days", "assay_type": "organism-based", "conditions": "in vivo, 168 h, time 7 day"}, "[5]": {"experiment": "AUC (infinity) in CD-1 mouse at 10 mg/kg, iv measured for 24 hrs by UPLC analysis", "assay_type": "ADME, organism-based", "conditions": "in vivo"}, "[6]": {"experiment": "AUClast in CD-1 mouse at 10 mg/kg, iv measured for 24 hrs by UPLC analysis", "assay_type": "ADME, organism-based", "conditions": "in vivo"}, "[7]": {"experiment": "MRT (infinity) in CD-1 mouse at 10 mg/kg, iv measured for 24 hrs by UPLC analysis", "assay_type": "ADME, organism-based", "conditions": "in vivo"}, "[8]": {"experiment": "Volume of distribution at steady state in CD-1 mouse at 10 mg/kg, iv measured for 24 hrs by UPLC analysis", "assay_type": "ADME, organism-based", "conditions": "in vivo, read-out: Vdss"}, "[9]": {"test_system": "Enterococcus faecium", "experiment": "Antibacterial activity against vancomycin-resistant Enterococcus faecium harboring VanM phenotype incubated for 16 to 24 hrs by CLSI based broth microdilution method", "assay_type": "functional", "conditions": "time 16-24 hrs"}, "[10]": {"test_system": "Staphylococcus aureus", "experiment": "Post-antibiotic effect in Staphylococcus aureus MRSA252 assessed as change in bacterial titer at 20 times measured after 2 hrs", "assay_type": "functional"}, "[11]": {"test_system": "Escherichia coli", "experiment": "Antibacterial activity against Escherichia coli AB1157 incubated for 16 to 24 hrs by CLSI based broth microdilution method", "assay_type": "functional", "conditions": "time 16-24 hrs"}, "[12]": {"test_system": "Pseudomonas aeruginosa", "experiment": "Antibacterial activity against Pseudomonas aeruginosa PAO1 incubated for 16 to 24 hrs by CLSI based broth microdilution method", "assay_type": "functional", "conditions": "time 16-24 hrs"}, "[13]": {"test_system": "Staphylococcus aureus", "experiment": "Induction of drug resistance in vancomycin-sensitive Staphylococcus aureus MRSA252 assessed as fold increase in MIC measured after 16 days of serial passages by broth microdilution method", "assay_type": "functional", "conditions": "time 16 day"}, "[14]": {"test_system": "Klebsiella pneumoniae", "experiment": "Antibacterial activity against Klebsiella pneumoniae clinical isolate incubated for 16 to 24 hrs by CLSI based broth microdilution method", "assay_type": "functional", "conditions": "time 16-24 hrs"}, "[15]": {"test_system": "Staphylococcus aureus", "experiment": "Antibacterial activity against Staphylococcus aureus Mu50 assessed as fold decrease in MIC at 1:1 ratio of compound and Ac2KAA at […] incubated for 16 to 24 hrs by absorbance based assay relative to control", "assay_type": "functional", "conditions": "dose 128 µg/ml; time 16-24 hrs"}, "[16]": {"test_system": "Staphylococcus aureus", "experiment": "Induction of cytoplasmic membrane permeabilization in methicillin-resistant Staphylococcus aureus MRSA252 at […] measured for 40 mins by PI/NPN staining based analysis", "assay_type": "functional, organism-based", "conditions": "dose 128.0 µg/ml"}, "[17]": {"experiment": "Half life in CD-1 mouse at 10 mg/kg, iv measured for 24 hrs by UPLC analysis", "assay_type": "ADME, organism-based", "conditions": "in vivo"}, "[18]": {"experiment": "Toxicity in BALB/c mouse infected with methicillin-resistant Staphylococcus aureus MRSA252 assessed as survival rate at 10 mg/kg, iv for 7 days", "assay_type": "organism-based", "conditions": "in vivo, 168 h, time 7 day"}, "[19]": {"test_system": "Enterococcus faecium", "experiment": "Antibacterial activity against vancomycin-resistant Enterococcus faecium harboring VanB phenotype incubated for 16 to 24 hrs by CLSI based broth microdilution method", "assay_type": "functional", "conditions": "time 16-24 hrs"}, "[20]": {"test_system": "Staphylococcus aureus", "experiment": "Post-antibiotic effect in Staphylococcus aureus MRSA252 assessed as change in bacterial titer at 10 times measured after 2 hrs", "assay_type": "functional"}, "[21]": {"test_system": "Staphylococcus aureus", "experiment": "Antibacterial activity against vancomycin-intermediate Staphylococcus aureus incubated for 16 to 24 hrs by CLSI based broth microdilution method", "assay_type": "functional", "conditions": "time 16-24 hrs"}, "[22]": {"test_system": "Staphylococcus aureus", "experiment": "Antibacterial activity against Staphylococcus aureus Mu50 at 1:1 ratio of compound and Ac2KAA at […] incubated for 16 to 24 hrs by absorbance based assay", "assay_type": "functional"}, "[23]": {"test_system": "Enterococcus faecium", "experiment": "Antibacterial activity against vancomycin-resistant Enterococcus faecium harboring VanA phenotype incubated for 16 to 24 hrs by CLSI based broth microdilution method", "assay_type": "functional", "conditions": "time 16-24 hrs"}, "[24]": {"test_system": "Staphylococcus aureus", "experiment": "Antibacterial activity against methicillin-susceptible Staphylococcus aureus incubated for 16 to 24 hrs by CLSI based broth microdilution method", "assay_type": "functional", "conditions": "time 16-24 hrs"}, "[25]": {"test_system": "Enterococcus faecalis", "experiment": "Induction of inner membrane permeabilization in Enterococcus faecalis ATCC29212 at […] measured for 20 mins by DiSC3(5) staining based analysis", "assay_type": "functional, organism-based", "conditions": "dose 128.0 µg/ml"}}, "note": "Active and inactive are the calls of the source. The rule behind the calls is not given here.", "data": [{"molecule": "CC(C)C[C@@H](N)C(=O)N[C@H]1C(=O)N[C@@H](CC(N)=O)C(=O)N[C@H]2C(=O)N[C@H]3C(=O)N[C@H](C(=O)N[C@H](C(=O)O)c4cc(O)cc(O)c4-c4cc3ccc4O)[C@H](O)c3ccc(c(Cl)c3)Oc3cc2cc(c3O[C@@H]2O[C@H](CO)[C@@H](O)[C@H](O)[C@H]2O[C@H]2C[C@](C)(N)[C@H](O)[C@H](C)O2)Oc2ccc(cc2Cl)[C@H]1O", "values": [{"measurement": "MIC", "setting": "[1]", "value": "> 128", "unit": "µg/mL"}, {"measurement": "Time", "setting": "[2]", "value": 1, "unit": "h"}, {"measurement": "clearance", "setting": "[3]", "value": 27.3, "unit": "mL/min/kg"}, {"measurement": "Activity", "setting": "[4]", "value": 62.5, "unit": "%"}, {"measurement": "AUC(0-inf)", "setting": "[5]", "value": 6300, "unit": "ng·h/mL"}, {"measurement": "AUC(0-t) at 24 h", "setting": "[6]", "value": 5210, "unit": "ng·h/mL"}, {"measurement": "MRT inf", "setting": "[7]", "value": 33.6, "unit": "min"}, {"measurement": "Vd", "setting": "[8]", "value": 0.919, "unit": "L/kg"}, {"measurement": "MIC", "setting": "[9]", "value": 128, "unit": "µg/mL"}, {"measurement": "Activity", "setting": "[10]", "value": 0.2, "unit": "log10CFU/ml"}, {"measurement": "MIC", "setting": "[11]", "value": "> 128", "unit": "µg/mL"}, {"measurement": "MIC", "setting": "[12]", "value": "> 128", "unit": "µg/mL"}, {"measurement": "fold change (FC)", "setting": "[13]", "value": 4}, {"measurement": "MIC", "setting": "[14]", "value": "> 128", "unit": "µg/mL"}, {"measurement": "fold change (FC)", "setting": "[15]", "value": ">32"}, {"measurement": "Activity", "setting": "[16]", "value": "inactive"}, {"measurement": "half-life", "setting": "[17]", "value": 31.8, "unit": "min"}, {"measurement": "Activity", "setting": "[18]", "value": 75, "unit": "%"}, {"measurement": "MIC", "setting": "[19]", "value": 128, "unit": "µg/mL"}, {"measurement": "Activity", "setting": "[20]", "value": 1, "unit": "log10CFU/ml"}, {"measurement": "MIC", "setting": "[21]", "value": 2, "unit": "µg/mL"}, {"measurement": "MIC", "setting": "[22]", "value": "> 128", "unit": "µg/mL"}, {"measurement": "MIC", "setting": "[23]", "value": "> 128", "unit": "µg/mL"}, {"measurement": "MIC", "setting": "[24]", "value": 0.5, "unit": "µg/mL"}, {"measurement": "Activity", "setting": "[25]", "value": "inactive"}]}]}
